Read-outs that look alike come from different tables or passages of the source.
Experiments:
Type in all cases: cell-based
[1] = tested on: MDA-MB-231 (breast cancer); assay: Antiproliferative activity (CCK-8 cell viability), MDA-MB-231; conditions: Homo sapiens, 72 h; for inhibition at 3.3 µM: Compound concentration: 3.3 μM; for inhibition at 10 µM: Compound concentration: 10 μM; for inhibition at 30 µM: Compound concentration: 30 μM
Description: (§1) The antiproliferative activity of a compound was determined in the following cell lines: MDA-MB-231 (breast cancer), HepG2 (liver cancer), SW480 (colon cancer), B16F10 (malignant melanoma), A431 (epidermoid carcinoma), A549 (lung adenocarcinoma), and HeLa (cervical cancer). MDA-MB-231, HepG2, SW480, B16F10, and A431 cells were cultured in Dulbecco's modified Eagle's medium (DMEM) containing 10% fetal bovine serum (FBS). HeLa cells were cultured in MEM/EBSS (MEM) containing 10% FBS. A549 cells were maintained in Kaighn's modification of Ham's F-12 medium containing 10% FBS. A Cell Counting Kit-8 (CCK-8) was used to measure the cell viability of different cells following treatment with the compound.
(§2) Briefly cells were seeded in a 96-well plate at a density of 2,000-5,000 cells/well. Following attachment, the cells were treated with the compound in media at a compound concentration of 3.3 μM, 10 μM, or 30 μM. After the cells were incubated at 37° C. for 72 h, a CCK-8 solution (10 μL) was added to each well. After incubation at 37° C. for 4 h, the absorbance value of each well was determined using a multi-well plate reader at 450 nm. The wells treated with DMSO were taken as a vehicle control. Data were also obtained similarly for all the replicates and the percentage of cell viability was determined with respect to the DMSO-treated cells. The results are summarized in Tables 2-4, wherein A represents no less than […] of cell growth; B represents no less than 30% but less than 50% inhibition of cell growth; and C represents less than 30% inhibition of cell growth.

HepG2 (liver cancer) = assay: Antiproliferative activity (CCK-8 cell viability), HepG2; conditions: Homo sapiens, 72 h; for inhibition at 3.3 µM: Compound concentration: 3.3 μM; for inhibition at 10 µM: Compound concentration: 10 μM; for inhibition at 30 µM: Compound concentration: 30 μM
Description: as §1, §2

SW480 (colon cancer) = assay: Antiproliferative activity (CCK-8 cell viability), SW480; conditions: Homo sapiens, 72 h; for inhibition at 3.3 µM: Compound concentration: 3.3 μM; for inhibition at 10 µM: Compound concentration: 10 μM; for inhibition at 30 µM: Compound concentration: 30 μM
Description: as §1, §2

[2] = tested on: B16F10 (malignant melanoma); assay: Antiproliferative activity (CCK-8 cell viability), B16F10; conditions: Mus musculus, 72 h; for inhibition at 3.3 µM: B16-F10, Compound concentration: 3.3 μM; for inhibition at 10 µM: B16-F10, Compound concentration: 10 μM; for inhibition at 30 µM: B16-F10, Compound concentration: 30 μM
Description: as §1, §2

[3] = tested on: A431 (epidermoid carcinoma); assay: Antiproliferative activity (CCK-8 cell viability), A431; conditions: Homo sapiens, 72 h, read-out: Antiproliferative activity in cancerous cells, A431 (inhibition of cell growth); for inhibition at 3.3 µM: A-431, Compound concentration: 3.3 μM; for inhibition at 10 µM: A-431, Compound concentration: 10 μM; for inhibition at 30 µM: A-431, Compound concentration: 30 μM
Description: as §1, §2

[4] = tested on: A549 (lung adenocarcinoma); assay: Antiproliferative activity (CCK-8 cell viability), A549; conditions: Homo sapiens, 72 h; for inhibition at 3.3 µM: Compound concentration: 3.3 μM; for inhibition at 10 µM: Compound concentration: 10 μM; for inhibition at 30 µM: Compound concentration: 30 μM
Description: as §1, §2

HeLa (cervical cancer) = assay: Antiproliferative activity (CCK-8 cell viability), HeLa; conditions: Homo sapiens, 72 h, read-out: Antiproliferative activity in cancerous cells, HELA (inhibition of cell growth); for inhibition at 3.3 µM: Compound concentration: 3.3 μM; for inhibition at 10 µM: Compound concentration: 10 μM; for inhibition at 30 µM: Compound concentration: 30 μM
Description: as §1, §2

[5] = read-out: Antiproliferative activity in cancerous cells, MDA-MB-231 (inhibition of cell growth)
[6] = read-out: Antiproliferative activity in cancerous cells, HepG2 (inhibition of cell growth)
[7] = read-out: Antiproliferative activity in cancerous cells, SW480 (inhibition of cell growth)
[8] = read-out: Antiproliferative activity in cancerous cells, B16F10 (inhibition of cell growth)
[9] = read-out: Antiproliferative activity in cancerous cells, A549 (inhibition of cell growth)

O=C(O)CC1=C(Cc2ccc(Oc3ccc(F)cc3)cc2)/C(=C/c2ccc(Cc3ccc(F)cc3)cc2)c2ccc(F)cc21 [A112, (Z)-2-(5-Fluoro-1-(4-(4-fluorobenzyl)benzylidene)-2-(4-(4-fluorophenoxy)-benzyl)-1H-inden-3-yl)acetic acid]
30 to 50%: inhibition at 3.3 µM (HepG2 (liver cancer); [6]) | inhibition at 3.3 µM [2, 8]
≥ 50%: inhibition at 3.3 µM [1, 5] | inhibition at 10 µM [1, 5] | inhibition at 10 µM (HepG2 (liver cancer); [6]) | inhibition at 3.3 µM (SW480 (colon cancer); [7]) | inhibition at 10 µM (SW480 (colon cancer); [7]) | inhibition at 10 µM [2, 8] | inhibition at 3.3 µM [3] | inhibition at 10 µM [3] | inhibition at 3.3 µM [4, 9] | inhibition at 10 µM [4, 9] | inhibition at 3.3 µM (HeLa (cervical cancer)) | inhibition at 10 µM (HeLa (cervical cancer))

CC1=C(CC(=O)O)c2cc(F)ccc2/C1=C\c1cccc(S(=O)(=O)c2ccc(F)cc2)c1 [C44, (Z)-2-(5-Fluoro-1-(3-((4-fluorophenyl)sulfonyl)benzylidene)-2-methyl-1H-inden-3-yl)acetic acid]
≥ 50%: inhibition at 3.3 µM [1, 5] | inhibition at 10 µM [1, 5] | inhibition at 10 µM (HepG2 (liver cancer); [6]) | inhibition at 3.3 µM [3] | inhibition at 10 µM (HeLa (cervical cancer))
30 to 50%: inhibition at 10 µM (SW480 (colon cancer); [7]) | inhibition at 10 µM [2, 8] | inhibition at 10 µM [3] | inhibition at 10 µM [4, 9]
< 30%: inhibition at 3.3 µM (HepG2 (liver cancer); [6]) | inhibition at 3.3 µM (SW480 (colon cancer); [7]) | inhibition at 3.3 µM [2, 8] | inhibition at 3.3 µM [4, 9] | inhibition at 3.3 µM (HeLa (cervical cancer))

CC1=C(CC(=O)O)c2cc(F)ccc2/C1=C\c1cccc(Oc2ccc3ccccc3c2)c1 [C99, (Z)-2-(5-Fluoro-2-methyl-1-(3-(naphthalen-2-yloxy)benzylidene)-1H-inden-3-yl)acetic acid]
< 30%: inhibition at 3.3 µM [1, 5] | inhibition at 3.3 µM (HepG2 (liver cancer); [6]) | inhibition at 3.3 µM (SW480 (colon cancer); [7]) | inhibition at 10 µM (SW480 (colon cancer); [7]) | inhibition at 3.3 µM [3] | inhibition at 10 µM [3] | inhibition at 3.3 µM [4, 9] | inhibition at 10 µM [4, 9] | inhibition at 3.3 µM (HeLa (cervical cancer))
≥ 50%: inhibition at 10 µM (HepG2 (liver cancer); [6]) | inhibition at 3.3 µM [2, 8] | inhibition at 10 µM [2, 8] | inhibition at 10 µM (HeLa (cervical cancer))
30 to 50%: inhibition at 10 µM [1, 5]

CCc1ccc2c(c1)/C(=C\c1ccc(COc3ccccc3)cc1)C(C)=C2CC(=O)O [B48, (Z)-2-(6-Ethyl-2-methyl-1-(4-(phenoxymethyl)benzylidene)-1H-inden-3-yl)acetic acid]
30 to 50%: inhibition at 3.3 µM [2, 8] | inhibition at 10 µM [2, 8] | inhibition at 30 µM ([2]; read-out: Antiproliferative activity in cancerous cells, B16F10) | inhibition at 10 µM [4, 9] | inhibition at 30 µM ([4]; read-out: Antiproliferative activity in cancerous cells, A549) | inhibition at 3.3 µM (HeLa (cervical cancer))
≥ 50%: inhibition at 3.3 µM [3] | inhibition at 10 µM [3] | inhibition at 10 µM (HeLa (cervical cancer))
< 30%: inhibition at 3.3 µM [1, 5] | inhibition at 10 µM [1, 5] | inhibition at 30 µM ([1]; read-out: Antiproliferative activity in cancerous cells, MDA-MB-231) | inhibition at 3.3 µM (HepG2 (liver cancer); [6]) | inhibition at 10 µM (HepG2 (liver cancer); [6]) | inhibition at 30 µM (HepG2 (liver cancer); read-out: Antiproliferative activity in cancerous cells, HepG2) | inhibition at 3.3 µM (SW480 (colon cancer); [7]) | inhibition at 10 µM (SW480 (colon cancer); [7]) | inhibition at 30 µM (SW480 (colon cancer); read-out: Antiproliferative activity in cancerous cells, SW480) | inhibition at 3.3 µM [4, 9]

CC1=C(CC(=O)O)c2cc(F)ccc2/C1=C\c1ccc(OC2CCC(F)(F)CC2)cc1 [C205, (Z)-2-(1-(4-((4,4-Difluorocyclohexyl)oxy)benzylidene)-5-fluoro-2-methyl-1H-inden-3-yl)acetic acid]
≥ 50%: inhibition at 3.3 µM [1, 5] | inhibition at 10 µM [1, 5] | inhibition at 30 µM [1, 5] | inhibition at 30 µM (HepG2 (liver cancer); [6]) | inhibition at 30 µM (SW480 (colon cancer); [7]) | inhibition at 3.3 µM [2, 8] | inhibition at 10 µM [2, 8] | inhibition at 30 µM [2, 8] | inhibition at 30 µM [3] | inhibition at 10 µM [4, 9] | inhibition at 30 µM [4, 9] | inhibition at 10 µM (HeLa (cervical cancer)) | inhibition at 30 µM (HeLa (cervical cancer))
< 30%: inhibition at 3.3 µM (HepG2 (liver cancer); [6]) | inhibition at 3.3 µM [3] | inhibition at 3.3 µM [4, 9] | inhibition at 3.3 µM (HeLa (cervical cancer))
30 to 50%: inhibition at 10 µM (HepG2 (liver cancer); [6]) | inhibition at 3.3 µM (SW480 (colon cancer); [7]) | inhibition at 10 µM (SW480 (colon cancer); [7]) | inhibition at 10 µM [3]

CC1=C(CC(=O)O)c2cc(Cl)ccc2/C1=C/c1ccc(Oc2ccc(C(C)C)cc2)cc1 [E30, (E)-2-(5-Chloro-1-(4-(4-isopropylphenoxy)benzylidene)-2-methyl-1H-inden-3-yl)acetic acid]
≥ 50%: inhibition at 3.3 µM [1, 5] | inhibition at 10 µM [1, 5] | inhibition at 30 µM [1, 5] | inhibition at 10 µM (HepG2 (liver cancer); [6]) | inhibition at 30 µM (HepG2 (liver cancer); [6]) | inhibition at 3.3 µM (SW480 (colon cancer); [7]) | inhibition at 10 µM (SW480 (colon cancer); [7]) | inhibition at 30 µM (SW480 (colon cancer); [7]) | inhibition at 3.3 µM [2, 8] | inhibition at 10 µM [2, 8] | inhibition at 30 µM [2, 8] | inhibition at 10 µM [3] | inhibition at 30 µM [3] | inhibition at 10 µM [4, 9] | inhibition at 30 µM [4, 9] | inhibition at 3.3 µM (HeLa (cervical cancer)) | inhibition at 10 µM (HeLa (cervical cancer)) | inhibition at 30 µM (HeLa (cervical cancer))
< 30%: inhibition at 3.3 µM [3] | inhibition at 3.3 µM [4, 9]
30 to 50%: inhibition at 3.3 µM (HepG2 (liver cancer); [6])

CCc1ccc2c(c1)C(CC(=O)O)=C(C)/C2=C/c1cccc(Oc2ccc(C(F)(F)F)cc2)c1 [C106, (Z)-2-(5-Ethyl-2-methyl-1-(3-(4-(trifluoromethyl)phenoxy)benzylidene)-1H-inden-3-yl)acetic acid]
≥ 50%: inhibition at 3.3 µM [1, 5] | inhibition at 10 µM [1, 5] | inhibition at 3.3 µM (HepG2 (liver cancer); [6]) | inhibition at 10 µM (HepG2 (liver cancer); [6]) | inhibition at 3.3 µM (SW480 (colon cancer); [7]) | inhibition at 10 µM (SW480 (colon cancer); [7]) | inhibition at 3.3 µM [2, 8] | inhibition at 10 µM [2, 8] | inhibition at 10 µM [3] | inhibition at 3.3 µM [4, 9] | inhibition at 10 µM [4, 9] | inhibition at 3.3 µM (HeLa (cervical cancer)) | inhibition at 10 µM (HeLa (cervical cancer))
30 to 50%: inhibition at 3.3 µM [3]

CC1=C(CC(=O)O)c2cc(F)ccc2/C1=C\c1ccc(OCc2cc3ccccc3s2)cc1 [B70, (Z)-2-(1-(4-(Benzo[b]thiophen-2-ylmethoxy)benzylidene)-5-fluoro-2-methyl-1H-inden-3-yl)acetic acid]
≥ 50%: inhibition at 10 µM [1, 5] | inhibition at 3.3 µM (HepG2 (liver cancer); [6]) | inhibition at 10 µM (HepG2 (liver cancer); [6]) | inhibition at 10 µM (SW480 (colon cancer); [7]) | inhibition at 3.3 µM [2, 8] | inhibition at 10 µM [2, 8] | inhibition at 3.3 µM [4, 9] | inhibition at 10 µM [4, 9] | inhibition at 3.3 µM (HeLa (cervical cancer)) | inhibition at 10 µM (HeLa (cervical cancer))
30 to 50%: inhibition at 3.3 µM [1, 5] | inhibition at 3.3 µM (SW480 (colon cancer); [7]) | inhibition at 3.3 µM [3] | inhibition at 10 µM [3]

— patent publication US20260184663A1, “INDENE COMPOUNDS, PHARMACEUTICAL COMPOSITIONS THEREOF, AND THEIR THERAPEUTIC APPLICATIONS” (NucMito Pharmaceuticals co. Ltd., priority 2022, published 2026)
